From patent publication US5900488A, “Method for treating mycosis using imidazolylacetonitrile derivatives” (Nihon Nohyaku Co., Ltd., priority 1995, dated 1999)
Converted amounts (≈) assume the structure as drawn. Where two headings read alike, the source gives them in different places.

Tests used:
[1] = tested on: Trichophyton mentagrophytes; assay: In vitro activity against Trichophyton mentagrophytes, MIC by twofold macro-broth dilution (Test Example 1); type: cell-based; conditions: Trichophyton mentagrophytes, 7 days at 27° C.
Procedure: (§1) Minimum inhibitory concentrations (MICs) were determined by the twofold macro-broth dilution method with Sabouraud's glucose broth which constituted with 1% bactopeptone and 4% glucose. To each tube containing 9.8 ml of the broth, 0.1 ml of each testing compound dissolved in DMSO and 0.1 ml of a conidial suspension (1×10^6 conidia/ml) were added. The fungal growth was observed after incubation for 7 days at 27° C. The MIC was determined as the lowest drug concentration which prevented a visible fungal growth.

Trichophyton rubrum = assay: In vitro activity against Trichophyton rubrum, MIC by twofold macro-broth dilution (Test Example 1); type: cell-based
Procedure: as §1

Candida albicans = assay: In vitro antifungal activity against Candida albicans, MIC by twofold micro-broth dilution (Test Example 3); type: cell-based
Procedure: MICs were determined by the twofold micro-broth dilution method with RPMI 1640 buffered with morphorino-propanesulfonic acid to a final molarity of 0.165M (pH 7.0). One hundred μl of a yeast cell suspension (1 to 5×10^3 cells/ml) and 100 μl of the compound-containing medium were pipetted into each well flat-bottomed microtiter plates. After incubation for 48 hours at 35° C., the turbidity of each well was measured at 630 nm.

Aspergillus fumigatus = assay: In vitro antifungal activity against Aspergillus fumigatus, MIC by twofold agar dilution (Test Example 4); type: cell-based; conditions: read-out: MIC
Procedure: MICs were determined by the twofold agar dilution method with casitone agar which constituted with 0.9% bactocasitone, 1% bacto-yeast extract, 2% glucose, 0.1% KH2 PO4, 0.1% Na2 HPO4, 1% Na3 C6 H5 O7 and 1.6% agar. A loopful of each inoculum (1×10^6 conidia/ml) was streaked onto the agar plate containing a compound, and a fungal growth was observed after incubation for 48 hours at 35° C. The MIC was determined as the lowest drug concentration which prevented a visible fungal growth.

dermatophytes = assay: Antifungal activity against dermatophytes compared with racemic mixtures (general statement); conditions: especially highly sensitive strains
[2] = IFO5466, 168 h, strain IFO 5466
[3] = IFO5809, 168 h, strain IFO 5809
[4] = IFO5810, 168 h, strain IFO 5810
[5] = IFO5811, 168 h, strain IFO 5811
[6] = IFO5929, 168 h, strain IFO 5929
[7] = TIMM1189, 168 h, strain TIMM 1189
[8] = TIMM1814, 168 h, strain TIMM 1814
[9] = TIMM1815, 168 h, strain TIMM 1815
[10] = TIMM1817, 168 h, strain TIMM 1817
[11] = TIMM2789, 168 h, strain TIMM 2789
[12] = IFO5467, 168 h, strain IFO 5467, 7 days at 27° C.
[13] = IFO5807, 168 h, strain IFO 5807, 7 days at 27° C.
[14] = IFO5808, 168 h, strain IFO 5808, 7 days at 27° C.
[15] = IFO6203, 168 h, strain IFO 6203, 7 days at 27° C.
[16] = IFO6204, 168 h, strain IFO 6204, 7 days at 27° C.
[17] = IFO9185, 168 h, strain IFO 9185, 7 days at 27° C.
[18] = TIMM1822, 168 h, strain TIMM 1822, 7 days at 27° C.
[19] = TIMM1823, 168 h, strain TIMM 1823, 7 days at 27° C.
[20] = TIMM1824, 168 h, strain TIMM 1824, 7 days at 27° C.
[21] = TIMM1830, 168 h, strain TIMM 1830, 7 days at 27° C.
[22] = IFO0197, strain IFO 0197, 80% inhibition, 48 hours at 35° C., pH 7.0, read-out: MIC
[23] = IFO0579, strain IFO 0579, 80% inhibition, 48 hours at 35° C., pH 7.0, read-out: MIC
[24] = IFO1269, strain IFO 1269, 80% inhibition, 48 hours at 35° C., pH 7.0, read-out: MIC
[25] = IFO1270, strain IFO 1270, 80% inhibition, 48 hours at 35° C., pH 7.0, read-out: MIC
[26] = IFO1385, strain IFO 1385, 80% inhibition, 48 hours at 35° C., pH 7.0, read-out: MIC
[27] = IFO1386, strain IFO 1386, 80% inhibition, 48 hours at 35° C., pH 7.0, read-out: MIC
[28] = TIMM3163, strain TIMM 3163, 80% inhibition, 48 hours at 35° C., pH 7.0, read-out: MIC
[29] = TIMM3164, strain TIMM 3164, 80% inhibition, 48 hours at 35° C., pH 7.0, read-out: MIC
[30] = TIMM3165, strain TIMM 3165, 80% inhibition, 48 hours at 35° C., pH 7.0, read-out: MIC
[31] = TIMM3166, strain TIMM 3166, 80% inhibition, 48 hours at 35° C., pH 7.0, read-out: MIC

Row | MIC [1, 2] [µg/mL] | MIC [1, 3] [µg/mL] | MIC [1, 4] [µg/mL] | MIC [1, 5] [µg/mL] | MIC [1, 6] [µg/mL] | MIC [1, 7] [µg/mL] | MIC [1, 8] [µg/mL] | MIC [1, 9] [µg/mL] | MIC [1, 10] [µg/mL] | MIC [1, 11] [µg/mL] | MIC (Trichophyton rubrum; [12]) [µg/mL] | MIC (Trichophyton rubrum; [13]) [µg/mL] | MIC (Trichophyton rubrum; [14]) [µg/mL] | MIC (Trichophyton rubrum; [15]) [µg/mL] | MIC (Trichophyton rubrum; [16]) [µg/mL] | MIC (Trichophyton rubrum; [17]) [µg/mL] | MIC (Trichophyton rubrum; [18]) [µg/mL] | MIC (Trichophyton rubrum; [19]) [µg/mL] | MIC (Trichophyton rubrum; [20]) [µg/mL] | MIC (Trichophyton rubrum; [21]) [µg/mL] | SMILES | also measured
1 | 0.02 (≈ 0.0565 µM) | 0.005 (≈ 0.0141 µM) | 0.005 (≈ 0.0141 µM) | 0.01 (≈ 0.0282 µM) | 0.01 (≈ 0.0282 µM) | 0.01 (≈ 0.0282 µM) | 0.02 (≈ 0.0565 µM) | 0.02 (≈ 0.0565 µM) | 0.01 (≈ 0.0282 µM) | 0.0025 (≈ 0.00706 µM) | 0.0025 (≈ 0.00706 µM) | 0.0025 (≈ 0.00706 µM) | 0.0025 (≈ 0.00706 µM) | 0.0013 (≈ 0.00367 µM) | 0.0025 (≈ 0.00706 µM) | 0.0013 (≈ 0.00367 µM) | 0.00063 (≈ 0.00178 µM) | 0.0013 (≈ 0.00367 µM) | 0.0013 (≈ 0.00367 µM) | 0.00063 (≈ 0.00178 µM) | N#C/C(=C1/SC[C@@H](c2ccc(Cl)cc2Cl)S1)n1ccnc1 [Compound (B), R-(-)-(E)-[4-(2,4-dichlorophenyl)-1,3-dithiolan-2-ylidene]-1-imidazolylacetonitrile] | sensitivity (in words) (Trichophyton rubrum): highly sensitive; MIC (Candida albicans; [22]): 0.0625 µg/mL (≈ 0.176 µM); MIC (Candida albicans; [23]): 0.0313 µg/mL (≈ 0.0883 µM); MIC (Candida albicans; [24]): 0.0625 µg/mL (≈ 0.176 µM); MIC (Candida albicans; [25]): 0.25 µg/mL (≈ 0.706 µM); MIC (Candida albicans; [26]): 0.0625 µg/mL (≈ 0.176 µM); MIC (Candida albicans; [27]): 0.125 µg/mL (≈ 0.353 µM); MIC (Candida albicans; [28]): 16 µg/mL (≈ 45.2 µM); MIC (Candida albicans; [29]): 0.5 µg/mL (≈ 1.41 µM); MIC (Candida albicans; [30]): 2 µg/mL (≈ 5.65 µM); MIC (Candida albicans; [31]): 1 µg/mL (≈ 2.82 µM); MIC (Aspergillus fumigatus; TIMM0063, strain TIMM 0063, 48 hours at 35° C.): 0.00063 µg/mL (≈ 0.00178 µM); MIC (Aspergillus fumigatus; TIMM0078, strain TIMM 0078, 48 hours at 35° C.): 0.00063 µg/mL (≈ 0.00178 µM); MIC (Aspergillus fumigatus; TIMM1728, strain TIMM 1728, 48 hours at 35° C.): ≤ 0.00031 µg/mL; MIC (Aspergillus fumigatus; TIMM1767, strain TIMM 1767, 48 hours at 35° C.): 0.00063 µg/mL (≈ 0.00178 µM); antifungal activity relative to the racemic mixtures (dermatophytes): several times
2 | – | – | – | – | – | – | – | – | – | – | – | – | – | – | – | – | – | – | – | – | OC(Cn1cncn1)(Cn1cncn1)c1ccc(F)cc1F [FCZ, 2(2,4-Difluorophenyl)-1,3-bis(1H-1,2,4-triazol-1-yl)-2-propanol] | MIC (Candida albicans; IFO0197, 48 h, pH 7): 0.25 µg/mL (≈ 0.816 µM); MIC (Candida albicans; IFO0579, 48 h, pH 7): 0.125 µg/mL (≈ 0.408 µM); MIC (Candida albicans; IFO1269, 48 h, pH 7): 0.25 µg/mL (≈ 0.816 µM); MIC (Candida albicans; IFO1270, 48 h, pH 7): 0.25 µg/mL (≈ 0.816 µM); MIC (Candida albicans; IFO1385, 48 h, pH 7): 0.25 µg/mL (≈ 0.816 µM); MIC (Candida albicans; IFO1386, 48 h, pH 7): 0.5 µg/mL (≈ 1.63 µM); MIC (Candida albicans; TIMM3163, 48 h, pH 7): 16 µg/mL (≈ 52.2 µM); MIC (Candida albicans; TIMM3164, 48 h, pH 7): 2 µg/mL (≈ 6.53 µM); MIC (Candida albicans; TIMM3165, 48 h, pH 7): > 32 µg/mL; MIC (Candida albicans; TIMM3166, 48 h, pH 7): 8 µg/mL (≈ 26.1 µM)
3 | 0.02 (≈ 0.0686 µM) | 0.01 (≈ 0.0343 µM) | 0.005 (≈ 0.0172 µM) | 0.01 (≈ 0.0343 µM) | 0.01 (≈ 0.0343 µM) | 0.01 (≈ 0.0343 µM) | 0.01 (≈ 0.0343 µM) | 0.02 (≈ 0.0686 µM) | 0.01 (≈ 0.0343 µM) | 0.0025 (≈ 0.00858 µM) | 0.005 (≈ 0.0172 µM) | 0.005 (≈ 0.0172 µM) | 0.005 (≈ 0.0172 µM) | 0.0025 (≈ 0.00858 µM) | 0.005 (≈ 0.0172 µM) | 0.0025 (≈ 0.00858 µM) | 0.0025 (≈ 0.00858 µM) | 0.0025 (≈ 0.00858 µM) | 0.0013 (≈ 0.00446 µM) | 0.00063 (≈ 0.00216 µM) | CN(C/C=C/C#CC(C)(C)C)Cc1cccc2ccccc12 [TBF, (E)N-(6,6-Dimethyl-2-hepten-4-ynyl)-N-methyl-1-naphthalenemethaneamine hyrochloride] | MIC (Candida albicans; [22]): > 32 µg/mL; MIC (Candida albicans; [23]): > 32 µg/mL; MIC (Candida albicans; [24]): 4 µg/mL (≈ 13.7 µM); MIC (Candida albicans; [25]): > 32 µg/mL; MIC (Candida albicans; [26]): > 32 µg/mL; MIC (Candida albicans; [27]): > 32 µg/mL; MIC (Candida albicans; [28]): > 32 µg/mL; MIC (Candida albicans; [29]): > 32 µg/mL; MIC (Candida albicans; [30]): > 32 µg/mL; MIC (Candida albicans; [31]): > 32 µg/mL
